In publication PMC12006171, “Marsupial cathelicidins: characterization, antimicrobial activity and evolution in this unique mammalian lineage” (Frontiers in Immunology, 2025):
In brackets after ≈: the same amount, converted by molar mass. Read-outs that look alike come from different tables or passages of the source. Where a SMILES comes first, the peptide text is derived from it.

Assays:
Type in all cases: cell-based
[1] = system: Streptococcus agalactiae Clinical isolate - animal; test: microbe, parasite or virus in culture; conditions: clinical isolate - animal; read-out: MIC S. agalactiae
Experimental: (§1) Antimicrobial testing of 78 cathelicidin MPs was performed in two phases as outlined in Figure 1 . In phase I, 40 peptides (27 extant and 13 ancestral) were selected for testing based on rank (outlined above) and similarity to published marsupial cathelicidins with known antimicrobial activity ([33], [41]–[43]). These peptides were tested against nine bacteria (Staphylococcus aureus ATCC 29213 and clinical isolate, Escherichia coli ATCC 25922 and clinical isolate, Pseudomonas aeruginosa ATCC 27853 and clinical isolate, Streptococcus agalactiae ATCC 12386 and clinical isolate, Streptococcus pneumoniae ATCC 49619) and three fungi (Candida krusei ATCC 6258, Candida parapsilosis ATCC 22019, and Candida albicans clinical isolate). Details regarding these strains are available in Supplementary Table 4 . The antimicrobial activity of cathelicidins was determined as the minimum inhibitory concentration (MIC), which was the lowest concentration of cathelicidin that prevented visible bacterial or fungal growth, relative to the negative control. […] Minimum bactericidal concentration (MBC) and/or minimum fungicidal concentration (MFC) was conducted to determine microbicidal versus static action. Activity against S. aureus ATCC, E. coli ATCC, and Pseudomonas aeruginosa ATCC 27853 was examined in the presence of divalent cations to determine the impact of inhibitors.
(§2) Antimicrobial activity was determined using a broth microdilution susceptibility assay in 96 well polypropylene plates according to Clinical Laboratory Standards Institute guidelines M07-A and M26A as described previously ([33], [42], [43]). The bacterial and fungal isolates from humans and animals used in this study are outlined in Supplementary Table 4 . Only yeasts were included in the panel of fungi as they have been used in the susceptibility testing of eutherian ([3], [81]–[83]) and other marsupial cathelicidins previously ([33], [42], [43]). Cathelicidin mature peptides were solubilized in DMSO and serially diluted in duplicate from 128-0.25μg/mL in a final volume of 100µL. For bacteria, cathelicidins were diluted in Mueller Hinton Broth (MHB) with or without 10% lysed horse blood, and with (MH II B) or without (MHB) calcium and magnesium cations. For fungi, cathelicidins were diluted in Roswell Park Memorial Institute medium (RPMI)-1640 MOPS. Ampicillin or tetracycline were included as a positive control for Gram-positive and -negative bacteria respectively, while amphotericin B was used for fungi. A media-only negative control and growth control (no cathelicidin) were also included on each plate. Bacteria were sub-cultured on Muller Hinton agar (MHA) or sheep blood agar (BA), and fungi on Sabouraud dextrose agar (SAB), 20–24 hours prior to the test. Colonies were suspended in saline, the concentration adjusted to a 0.5 McFarland standard, and then diluted in media to a concentration of 1.0 x 10^6 cells/mL. Then, 100μL was added to each well of the cathelicidin dilution plate, giving a final inoculum density of 5 x 10^5 CFU/mL and cathelicidin concentration of 64-0.125μg/mL. Colony counts were performed on MHA/BA/SAB to confirm inoculum density. All plates were incubated at 35°C for 20–24 hours, depending on the strain.
(§3) Colonies were counted and compared to the colony count of the starting inoculum.

[2] = system: Streptococcus agalactiae ATCC 12386; test: microbe, parasite or virus in culture; conditions: ATCC 12386; read-out: MIC S. agalactiae ATCC
Experimental: as §1, §2, §3

Candida krusei ATCC 6258 = test: microbe, parasite or virus in culture; conditions: ATCC 6258; for MIC: read-out: MIC C. krusei ATCC
Experimental: as §1, §2, §3

[3] = system: Candida albicans Clinical isolate - human; test: microbe, parasite or virus in culture; conditions: Clinical isolate - human
Experimental: as §1, §2, §3

[4] = system: Streptococcus pneumoniae ATCC 49619; test: microbe, parasite or virus in culture; conditions: ATCC 49619; read-out: MIC S. pneumoniae ATCC
Experimental: as §1, §2, §3

[5] = system: Staphylococcus aureus clinical isolate - animal; test: microbe, parasite or virus in culture; conditions: clinical isolate - animal
In short: (§4)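 Each isolate was exposed to twofold peptide dilutions (final 64-0.125μg/mL) in Mueller Hinton broth, optionally supplemented with calcium and magnesium or 10% lysed horse blood. The MIC was taken as the lowest concentration lacking visible growth after 20–24 hours at 35°C.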

[6] = system: Escherichia coli clinical isolate - animal; test: microbe, parasite or virus in culture; conditions: clinical isolate - animal
In short: as §4

[7] = system: Escherichia coli ATCC 25922; test: microbe, parasite or virus in culture; conditions: ATCC 25922
In short: as §4

[8] = system: Pseudomonas aeruginosa clinical isolate - animal; test: microbe, parasite or virus in culture; conditions: clinical isolate - animal
In short: as §4

[9] = system: Pseudomonas aeruginosa ATCC 27853; test: microbe, parasite or virus in culture; conditions: ATCC 27853
In short: as §4

[10] = system: Staphylococcus aureus ATCC 29213; test: microbe, parasite or virus in culture; conditions: ATCC 29213
In short: as §4

[11] = system: Staphylococcus aureus clinical isolate – animal, methicillin-resistant (MRSA); conditions: clinical isolate – animal, methicillin-resistant
Experimental: as §1, §2, §3

[12] = system: Staphylococcus aureus clinical isolate – animal, penicillin-resistant (PRSA); conditions: clinical isolate – animal, penicillin-resistant (PRSA)
Experimental: as §1, §2, §3

[13] = system: Candida parapsilosis ATCC 22019; test: microbe, parasite or virus in culture; conditions: ATCC 22019
Experimental: as §1, §2, §3

[14] = system: six bacteria (S. aureus, E. coli, P. aeruginosa; ATCC and clinical isolate)
Experimental: as §1
In phase II, the remaining 38 peptides (37 extant and one ancestral) were tested against six bacteria (S. aureus ATCC and clinical isolate, E. coli ATCC and clinical isolate, and P. aeruginosa ATCC and clinical isolate). […] No further testing on phase II peptides was performed. Detailed methods for all assays are provided in subsequent sections.
as §2, §3

[15] = read-out: MIC in the presence of cations E. coli ATCC
[16] = read-out: MIC P. aeruginosa ATCC

Row | MIC [1] [µM] | MIC [2] [µM] | MIC (Candida krusei ATCC 6258) [µM] | MIC [4] [µM] | MIC S. aureus [5] | MIC in the presence of cations S. aureus [5] | MIC [6] [µM] | MIC in the presence of cations E. coli [6] [µM] | MIC ([7]; read-out: MIC E. coli ATCC) [µM] | MIC [7, 15] [µM] | MIC ([8]; read-out: MIC P. aeruginosa) [µM] | MIC [9, 16] [µM] | MIC MRSA [11] [µM] | MIC PRSA [12] [µM] | SMILES | MBC S. aureus [5] | MBC E. coli [6] [µM] | MBC E. coli ATCC [7] | MBC P. aeruginosa [8] [µM] | MBC MRSA [11] [µM] | MBC PRSA [12] [µM] | further results
1 | >26.3 | >26.3 | 6.5 (≈ 15.8 µg/mL) | >26.3 | 6.5 (6.5)^6.5 µM | 6.5 (6.5)^6.5 µM | 3.2 (≈ 7.79 µg/mL) | 6.5 | 6.5 (≈ 15.8 µg/mL) | 13.1 | 26.3 (≈ 64 µg/mL) | >26.3 | 6.5 (≈ 15.8 µg/mL) | 3.2 (≈ 7.79 µg/mL) | CC[C@H](C)[C@H](NC(=O)[C@H](CCCNC(=N)N)NC(=O)[C@@H](N)CCCCN)C(=O)NCC(=O)N[C@@H](CC(C)C)C(=O)NCC(=O)NCC(=O)N[C@@H](CC(C)C)C(=O)N[C@H](C(=O)N[C@@H](CCCNC(=N)N)C(=O)N[C@@H](CCCNC(=N)N)C(=O)N[C@H](C(=O)N[C@@H](Cc1c[nH]c2ccccc12)C(=O)N[C@@H](CC(N)=O)C(=O)N[C@@H](CCCNC(=N)N)C(=O)N[C@H](C(=O)N[C@@H](CCCNC(=N)N)C(=O)N[C@@H](CCCNC(=N)N)C(=O)N[C@@H](CCCNC(=N)N)C(=O)NCC(=O)O)[C@@H](C)CC)[C@@H](C)CC)C(C)C [SmcrCath3] (H-KRIGLGGLVRRIWNRIRRRG-OH) | 6.5 (6.5)^6.5 µM | 6.5 (≈ 15.8 µg/mL) | 6.5 µM (≈ 15.8 µg/mL) | > 26.3 | 6.5 (≈ 15.8 µg/mL) | 6.5 (≈ 15.8 µg/mL) | MFC C. albicans [3]: 26.3 µM (≈ 64 µg/mL); MBC S. aureus ATCC [10]: 6.5 (6.5)^6.5 µM; MIC S. aureus ATCC [10]: 6.5 (6.5)^6.5 µM; MIC in the presence of cations S. aureus ATCC [10]: 6.5 (6.5)^6.5 µM
2 |  |  | 8.2 (≈ 31.6 µg/mL) |  |  |  |  |  |  |  |  |  |  |  | CC[C@H](C)[C@H](NC(=O)[C@H](CCCNC(=N)N)NC(=O)[C@@H](N)CCCCN)C(=O)NCC(=O)N[C@@H](Cc1ccccc1)C(=O)NCC(=O)N[C@@H](CC(C)C)C(=O)N[C@@H](Cc1ccccc1)C(=O)N[C@@H](Cc1c[nH]c2ccccc12)C(=O)N[C@@H](CC(=O)O)C(=O)NCC(=O)N[C@@H](CC(C)C)C(=O)N[C@@H](CCCNC(=N)N)C(=O)N[C@@H](CCCCN)C(=O)N[C@@H](CC(C)C)C(=O)NCC(=O)N[C@@H](CC(N)=O)C(=O)N[C@@H](CCCNC(=N)N)C(=O)N[C@H](C(=O)N[C@@H](CCCCN)C(=O)N[C@@H](CC(N)=O)C(=O)N[C@@H](CCCNC(=N)N)C(=O)N[C@H](C(=O)N[C@@H](CCCNC(=N)N)C(=O)N[C@@H](CC(=O)O)C(=O)N[C@@H](Cc1ccccc1)C(=O)N[C@@H](Cc1ccccc1)C(=O)N[C@@H](CO)C(=O)N[C@@H](CCCCN)C(=O)N[C@@H](Cc1ccccc1)C(=O)N[C@@H](CC(C)C)C(=O)NCC(=O)O)[C@@H](C)CC)[C@@H](C)CC [MAP9] (H-KRIGFGLFWDGLRKLGNRIKNRIRDFFSKFLG-OH) |  |  |  |  |  |  | MFC C. krusei ATCC (Candida krusei ATCC 6258): 16.5 µM (≈ 63.6 µg/mL); MIC ([3]; read-out: MIC C. albicans): >16.5 µM; MFC C. parapsilosis ATCC [13]: > 16.5 µM; MIC C. parapsilosis ATCC [13]: 16.5 µM (≈ 63.6 µg/mL)
3 | >27.1 | >27.1 | 8.9 (≈ 21 µg/mL) | >27.1 | 13.5 (13.5)^13.5 µM | 13.5 (13.5)^13.5 µM | 13.5 (≈ 31.9 µg/mL) | 27.1 |  |  | >27.1 | >27.1 | 13.5 (≈ 31.9 µg/mL) | 6.7 (≈ 15.8 µg/mL) | CC[C@H](C)[C@H](NC(=O)[C@H](CCCNC(=N)N)NC(=O)[C@@H](N)CCCCN)C(=O)NCC(=O)N[C@@H](CC(C)C)C(=O)NCC(=O)NCC(=O)N[C@@H](CC(C)C)C(=O)N[C@H](C(=O)N[C@@H](CCCNC(=N)N)C(=O)N[C@@H](CCCNC(=N)N)C(=O)N[C@H](C(=O)N[C@@H](CC(C)C)C(=O)N[C@@H](CC(=O)O)C(=O)N[C@@H](CCCNC(=N)N)C(=O)N[C@H](C(=O)N[C@@H](CCCNC(=N)N)C(=O)N[C@@H](CCCNC(=N)N)C(=O)N[C@@H](CCCNC(=N)N)C(=O)NCC(=O)O)[C@@H](C)CC)[C@@H](C)CC)C(C)C [AnstCath4] (H-KRIGLGGLVRRILDRIRRRG-OH) | 13.5 (13.5)^13.5 µM | 27.1 (≈ 64 µg/mL) | 27.1 (27.1)^27.1 µM |  | 27.1 (≈ 64 µg/mL) | 6.7 (≈ 15.8 µg/mL) | MFC C. parapsilosis ATCC [13]: 64 (>64) µg/mL; MIC E. coli ATCC [7]: 27.1 (27.1)^27.1 µM; MBC S. aureus ATCC [10]: 13.5 (13.5)^13.5 µM; MIC S. aureus ATCC [10]: 13.5 (13.5)^13.5 µM; MIC in the presence of cations S. aureus ATCC [10]: 13.5 (13.5)^13.5 µM
4 | >18 | >18 |  | >18 | 18 (>18)^18 µM | 18 (>18)^18 µM | 1.1 (≈ 3.9 µg/mL) |  | 1.1 (≈ 3.9 µg/mL) | 1.1 | 2.2 (≈ 7.8 µg/mL) | 2.2 (≈ 7.8 µg/mL) | 18 (≈ 63.8 µg/mL) | 4.5 (≈ 15.9 µg/mL) | CC[C@H](C)[C@H](NC(=O)[C@H](CCC(N)=O)NC(=O)[C@H](Cc1ccccc1)NC(=O)[C@H](CC(N)=O)NC(=O)[C@H](CCCCN)NC(=O)[C@H](CC(C)C)NC(=O)[C@H](CCCNC(=N)N)NC(=O)[C@H](CCCCN)NC(=O)[C@H](CCCCN)NC(=O)[C@@H](NC(=O)[C@H](CO)NC(=O)[C@H](CCCCN)NC(=O)CNC(=O)[C@H](CC(C)C)NC(=O)[C@H](CCCCN)NC(=O)[C@H](CCCCN)NC(=O)[C@H](CC(C)C)NC(=O)[C@H](CCCCN)NC(=O)[C@H](CCCCN)NC(=O)[C@H](CCCNC(=N)N)NC(=O)[C@H](CC(C)C)NC(=O)CNC(=O)[C@@H](N)CCCNC(=N)N)[C@@H](C)CC)C(=O)NCC(=O)N[C@@H](Cc1ccccc1)C(=O)N[C@@H](CO)C(=O)N[C@H](C(=O)N1CCC[C@H]1C(=O)N[C@@H](Cc1ccccc1)C(=O)N[C@@H](C)C(=O)NCC(=O)O)C(C)C [PegaCath4] (H-RGLRKKLKKLGKSIKKRLKNFQIGFSVPFAG-OH) |  | 1.1 (≈ 3.9 µg/mL) | 2.2 µM (≈ 7.8 µg/mL) | 4.5 (≈ 15.9 µg/mL) | > 18 | > 18 | MIC against at least one strain [14]: 4 µg/mL (≈ 1.13 µM); MIC ([8]; read-out: MIC in the presence of cations P. aeruginosa): 2.2 µM; MBC P. aeruginosa ATCC [9]: 4.5 µM (≈ 15.9 µg/mL); MIC ([9]; read-out: MIC in the presence of cations P. aeruginosa ATCC): 2.2 µM; MIC ([10]; read-out: MIC S. aureus ATCC): 9 µM (≈ 31.9 µg/mL); MIC ([10]; read-out: MIC in the presence of cations S. aureus ATCC): 18 µM
